In paper PMC3823594, “Conformational Changes Underlying Pore Dilation in the Cytoplasmic Domain of Mammalian Inward Rectifier K^+ Channels” (PLoS ONE, 2013):
Where a chain is given by its changes, count along the chain named.

Experiments:
Test in all cases: Two-electrode voltage clamp, ACh-dependent (m2R-dependent) K+ current activation
Type in all cases: cell-based
Kir3.2 E236N = target: T1, Kir3.2 E236N (Mus musculus, UniProt P48542, E236N); details: Kir3.2 E236N with porcine m2R in Xenopus oocytes; −120 mV; Hill equation fit
T1 sequence (P48542 19-425 E236N): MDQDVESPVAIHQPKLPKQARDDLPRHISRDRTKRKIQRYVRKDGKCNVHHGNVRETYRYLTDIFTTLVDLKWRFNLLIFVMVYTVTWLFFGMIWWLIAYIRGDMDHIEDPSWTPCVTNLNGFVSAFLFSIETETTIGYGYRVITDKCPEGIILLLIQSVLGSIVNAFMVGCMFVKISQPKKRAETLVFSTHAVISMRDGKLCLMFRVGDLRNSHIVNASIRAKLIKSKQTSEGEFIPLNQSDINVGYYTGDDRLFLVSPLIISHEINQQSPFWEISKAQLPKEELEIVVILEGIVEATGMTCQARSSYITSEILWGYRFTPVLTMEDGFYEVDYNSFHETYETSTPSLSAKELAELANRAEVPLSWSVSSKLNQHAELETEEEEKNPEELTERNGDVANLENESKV
T1 sequence (P06199 1-466 partner): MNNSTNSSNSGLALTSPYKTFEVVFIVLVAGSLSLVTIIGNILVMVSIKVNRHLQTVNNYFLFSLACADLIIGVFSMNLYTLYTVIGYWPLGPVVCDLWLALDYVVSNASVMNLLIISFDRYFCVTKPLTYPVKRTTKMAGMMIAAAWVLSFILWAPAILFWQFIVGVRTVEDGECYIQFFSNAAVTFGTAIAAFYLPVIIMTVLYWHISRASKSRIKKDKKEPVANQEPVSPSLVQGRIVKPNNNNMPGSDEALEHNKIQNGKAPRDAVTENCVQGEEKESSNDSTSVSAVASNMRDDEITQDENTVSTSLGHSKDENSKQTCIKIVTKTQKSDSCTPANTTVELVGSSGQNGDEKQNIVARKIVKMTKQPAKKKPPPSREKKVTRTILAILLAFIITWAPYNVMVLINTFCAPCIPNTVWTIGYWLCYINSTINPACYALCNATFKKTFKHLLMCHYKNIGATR
Description: (§1) The mouse Kir3.2d isoform was subjected to functional analyses. The amino acid numbers correspond to the longest mouse Kir3.2 isoform. Point mutations were introduced using the QuikChange site-directed mutagenesis kit (Stratagene, La Jolla, CA), and the presence of the mutations was confirmed by direct DNA sequencing. The care of Xenopus laevis was in accordance with the guideline of the Institute of Experimental Animal Sciences, Osaka University. The protocol was approved by the Animal Experiment Committee of Osaka University. The frogs were deeply anesthetized by immersing in 0.2% tricaine methanesulfonate for 20 min at 18°C. A portion of an ovary lobe was surgically removed and incubated with collagenase to remove follicular cells. The oocytes were injected with the cRNAs of Kir3.2 and porcine m2-muscarinic receptor (m2R), and maintained in modified Barth’s solution at 18°C with daily solution changes. Electrophysiological studies were undertaken 48–72 h later at room temperature (20–25°C). Two-electrode voltage-clamp recordings from oocytes were performed using a GeneClamp 500B amplifier (Axon Instruments, Sunnyvale, CA). […] The bath solution contained 40 mM KCl, 50 mM NaCl, 3 mM MgCl2, 0.15 mM niflumic acid, and 5 mM HEPES-KOH (pH 7.4). The currents were recorded in the absence or presence of various concentrations of acetylcholine (ACh). Ba^2+ (3 mM) was added at the end of the recording to estimate the endogenous leak current. The data are expressed as mean values ± standard error of the mean. For the quantitative estimation of ACh-dependent current responses of the wild-type (WT) and mutant channels, the current amplitudes at the end of test pulses at each ACh concentration ([ACh]) were fitted using the following equation:
(§2) I=min+[(max−min)/(1+(EC50/[ACh])^nH)]
(§3) where I is the current amplitude measured at the [ACh], n H is the Hill coefficient, and EC50 is the concentration that induces 50% of the maximal response. […] The values of n H and EC50 were calculated using a non-linear least-squares best fit (SigmaPlot 9; Systat Software). Statistical analyses were performed by one-way ANOVA with post-hoc tests.

Kir3.2 M313S = target: T2, Kir3.2 M313S (Mus musculus, UniProt P48542, I313S); details: Kir3.2 M313S with porcine m2R in Xenopus oocytes; −120 mV; Hill equation fit
T2 sequence (P48542 19-425 I313S): T1 sequence (P48542 19-425 E236N) with N218E, I295S
T2 sequence (P06199 1-466 partner): T1 sequence (P06199 1-466 partner)
Description: as §1, §2, §3

Kir3.2 E236G = target: T3, Kir3.2 E236G (Mus musculus, UniProt P48542, E236G); details: Kir3.2 E236G with porcine m2R in Xenopus oocytes; −120 mV; Hill equation fit
T3 sequence (P48542 19-425 E236G): T1 sequence (P48542 19-425 E236N) with N218G
T3 sequence (P06199 1-466 partner): T1 sequence (P06199 1-466 partner)
Description: as §1, §2, §3

CC(=O)OCC[N+](C)(C)C [ACh, acetylcholine]
Hill coefficient (Kir3.2 E236N): 0.82 ± 0.08 | Hill coefficient (Kir3.2 M313S): 1.04 ± 0.05 | Hill coefficient (Kir3.2 E236G): 1.10 ± 0.04
